According to US11000033B2, “Ketone or oxime compound, and herbicide” (NISSAN CHEMICAL CORPORATION, priority 2014, dated 2021):

Assays:
Type in all cases: in vivo
soybean = test: Test Example 5: effect on crop by foliage application, plastic box (symbol d); conditions: 320 g/ha, 3 weeks after application
Summary of the method: (§1)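 Plants were raised from seed in a greenhouse (25° C. to 30° C.) after sowing in a plastic box of sterilized diluvial soil.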

[1] = system: directly sowed rice plant; test: Test Example 3: effect on crop by foliage application, Wagner pot (symbol b); conditions: application herbicide amount 320 g/ha; for b (directly sowed rice plant) effect on crop grade: Table 24
Summary of the method: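 Plants are raised from seed in flooded paddy conditions: water stands 0.1–0.5 cm over alluvial soil, and the pot is kept in a greenhouse at 25–30 °C. Species sown are barnyardgrass (E. crus-galli var. crus-galli), Leptochloa chinensis, Cyperus difformis and rice.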

Monochoria vaginalis = test: Test Example 1: herbicidal activity, application before weed generation in submerged conditions (symbol C); conditions: application herbicide amount 320 g/ha
Summary of the method: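 0–5 visual score, 3 wk post-application. Submerged pots, alluvial soil, water 4 cm; seeds sown mixed, rice at 2.5 leaves transplanted. Emulsion diluted to predetermined dose, applied to water surface at sowing. 25–30 °C greenhouse.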

corn = test: Test Example 5: effect on crop by foliage application, plastic box (symbol c); conditions: 320 g/ha, 3 weeks after application
Summary of the method: as §1

Leptochloa chinensis = test: Test Example 3: herbicidal effect by foliage application, Wagner pot (symbol D); conditions: application herbicide amount 320 g/ha; for D (Leptochloa chinensis) herbicidal effect grade: Table 24
Summary of the method: (§2)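 The compound, formulated as an emulsion and diluted with water to a predetermined rate, is applied uniformly to leaves of two-week-old seedlings growing in submerged alluvial soil at 25–30 °C. Rice is included. Each plant is assessed 3 weeks later using defined criteria.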

Chenopodium album = test: Test Example 4: herbicidal effect by soil treatment (symbol O); conditions: for O: Chenopodium album, herbicidal effect grade: 320 g/ha; for Herbicidal effect grade, O: Chenopodium album: application herbicide amount 320 g/ha
Summary of the method: (§3)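 Seeds were sown in sterilized diluvial soil, covered with about 1.5 cm of soil, and the soil surface was sprayed with a water-diluted emulsion of the compound at a predetermined rate. Plants grew in a greenhouse at 25° C. to 30° C.; effects were scored visually 3 weeks after application.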

beet = test: Test Example 4: effect on crop by soil treatment (symbol f); conditions: for f: beet, effect grade on crop: 320 g/ha; for Effect on crop grade, f: beet: application herbicide amount 320 g/ha
Summary of the method: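 Seeds were sown in spots on sterilized diluvial soil in a plastic box and covered with about 1.5 cm of soil. Plants were then grown in a greenhouse at 25° C. to 30° C.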

[2] = system: Echinochloa oryzacola Vasing.; test: Test Example 2: herbicidal activity, application during weed generation in submerged conditions (symbol A); conditions: Table 23; application herbicide amount 320 g/ha; grade 0-5 by criteria of Test Example 1
Summary of the method: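 Treatment timing was the one- to two-leaf stage, with diluted emulsifiable compound dropped onto the paddy water (depth 4 cm) over alluvial soil. All three species grew from a mixed sowing in a 25° C. to 30° C. greenhouse. Injury was judged by eye 3 weeks on.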

[3] = system: Echinochloa crus-galli var. crus-galli; test: Test Example 3: herbicidal effect by foliage application, Wagner pot (symbol H); conditions: application herbicide amount 320 g/ha; for H (Echinochloa crus-galli var. crus-galli) herbicidal effect grade: Table 24
Summary of the method: as §2

Digitaria ciliaris = test: Test Example 4: herbicidal effect by soil treatment (symbol F); conditions: for F: Digitaria ciliaris, herbicidal effect grade: 320 g/ha; for Herbicidal effect grade, F: Digitaria ciliaris: application herbicide amount 320 g/ha
Summary of the method: as §3

transplanted rice plant = test: Test Example 1: effect on crop, application before weed generation in submerged conditions (symbol a); conditions: application herbicide amount 320 g/ha
Summary of the method: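 Alluvial soil pots flooded to 4 cm water, sown with Echinochloa oryzacola, Scirpus juncoides and Monochoria vaginalis, then transplanted with 2.5 leaf stage rice seedlings; pre-emergence application. Greenhouse 25° C. to 30° C.; scored 0–5 by herbicidal ratio 3 weeks after application.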

Lolium multiflorum Lam. = test: Test Example 4: herbicidal effect by soil treatment (symbol K); conditions: for K: Lolium multiflorum Lam., herbicidal effect grade: 320 g/ha; for Herbicidal effect grade, K: Lolium multiflorum Lam.: application herbicide amount 320 g/ha
Summary of the method: as §3

Structure (SMILES) | d: soybean, effect on crop (criteria 0-5) (soybean) | effect on crop b (directly sowed rice plant), grade 0-5 [1] | Herbicidal effect grade, C: Monochoria vaginalis (Monochoria vaginalis) | c: corn, effect on crop (criteria 0-5) (corn) | herbicidal effect on D (Leptochloa chinensis), grade 0-5 (Leptochloa chinensis) | O: Chenopodium album, herbicidal effect grade (Chenopodium album) | f: beet, effect grade on crop (beet) | Herbicidal effect grade, A: Echinochloa oryzacola Vasing. [2] | herbicidal effect on H (Echinochloa crus-galli var. crus-galli), grade 0-5 [3] | F: Digitaria ciliaris, herbicidal effect grade (Digitaria ciliaris) | Effect grade on crop, a: transplanted rice plant (transplanted rice plant) | K: Lolium multiflorum Lam., herbicidal effect grade (Lolium multiflorum Lam.) | d: soybean, effect on crop grade (soybean) | b (directly sowed rice plant) effect on crop grade [1] | C (Monochoria vaginalis) herbicidal effect grade (Monochoria vaginalis) | c: corn, effect on crop grade (corn) | D (Leptochloa chinensis) herbicidal effect grade (Leptochloa chinensis) | Herbicidal effect grade, O: Chenopodium album (Chenopodium album) | Effect on crop grade, f: beet (beet) | H (Echinochloa crus-galli var. crus-galli) herbicidal effect grade [3] | other results
CCC(Oc1ccc2ncc(Br)cc2c1)C(=O)OC1=C(c2c(C)cc(C)cc2C)C(=O)C(CC(C)=NOC)C1 (stereo not drawn) [1-140] | 3 (Herbicidal ratio of 40% or higher and lower than 70%) | 5 (Herbicidal ratio of 90% or more (almost completely withered)) | 1 (Herbicidal ratio of 5% or higher and lower than 20%) | 4 (Herbicidal ratio of 70% or higher and lower than 90%) | 5 (Herbicidal ratio of 90% or more (almost completely withered)) | 0 (Herbicidal ratio of 5% or lower (almost no effect)) | 0 (Herbicidal ratio of 5% or lower (almost no effect)) | 5 (Herbicidal ratio of 90% or more (almost completely withered)) | 5 (Herbicidal ratio of 90% or more (almost completely withered)) | 5 (Herbicidal ratio of 90% or more (almost completely withered)) | 5 (Herbicidal ratio of 90% or more (almost completely withered)) | 5 (Herbicidal ratio of 90% or more (almost completely withered)) |  |  |  |  |  |  |  |  | 
CON=C(C)CC1CC(OC(=O)CN(C)C(=O)c2ccccc2)=C(c2c(C)cc(C)cc2C)C1=O (stereo not drawn) [1-139] | 1 (Herbicidal ratio of 5% or higher and lower than 20%) | 5 (Herbicidal ratio of 90% or more (almost completely withered)) | 1 (Herbicidal ratio of 5% or higher and lower than 20%) | 5 (Herbicidal ratio of 90% or more (almost completely withered)) | 5 (Herbicidal ratio of 90% or more (almost completely withered)) | 0 (Herbicidal ratio of 5% or lower (almost no effect)) | 0 (Herbicidal ratio of 5% or lower (almost no effect)) | 5 (Herbicidal ratio of 90% or more (almost completely withered)) | 5 (Herbicidal ratio of 90% or more (almost completely withered)) | 5 (Herbicidal ratio of 90% or more (almost completely withered)) | 5 (Herbicidal ratio of 90% or more (almost completely withered)) | 5 (Herbicidal ratio of 90% or more (almost completely withered)) |  |  |  |  |  |  |  |  | 
CC#Cc1cc(C)c(C2=C(O)CC(CC(=NOCCOC)C(C)C)C2=O)c(C)c1 (stereo not drawn) [9-023] |  |  |  |  |  |  |  | 5 (Herbicidal ratio of 90% or more (almost completely withered)) |  |  |  |  | 0 (Herbicidal ratio of 5% or lower (almost no effect)) | 5 (Herbicidal ratio of 90% or more (almost completely withered)) | 4 (Herbicidal ratio of 70% or higher and lower than 90%) | 5 (Herbicidal ratio of 90% or more (almost completely withered)) | 5 (Herbicidal ratio of 90% or more (almost completely withered)) | 0 (Herbicidal ratio of 5% or lower (almost no effect)) | 0 (Herbicidal ratio of 5% or lower (almost no effect)) | 5 (Herbicidal ratio of 90% or more (almost completely withered)) | Herbicidal effect grade, F: Digitaria ciliaris (Digitaria ciliaris): 5 (Herbicidal ratio of 90% or more (almost completely withered)); a (transplanted rice plant) effect on crop grade (transplanted rice plant): 5 (Herbicidal ratio of 90% or more (almost completely withered)); Herbicidal effect grade, K: Lolium multiflorum Lam. (Lolium multiflorum Lam.): 3 (Herbicidal ratio of 40% or higher and lower than 70%)
Cc1cc(Br)cc(C)c1C1=C(O)CC(CC(=O)C(C)C)C1=O (racemic) [10-003] |  |  |  |  |  |  |  | 3 (Herbicidal ratio of 40% or higher and lower than 70%) |  |  |  |  | 0 (Herbicidal ratio of 5% or lower (almost no effect)) | 5 (Herbicidal ratio of 90% or more (almost completely withered)) | 0 (Herbicidal ratio of 5% or lower (almost no effect)) | 2 (Herbicidal ratio of 20% or higher and lower than 40%) | 4 (Herbicidal ratio of 70% or higher and lower than 90%) | 0 (Herbicidal ratio of 5% or lower (almost no effect)) | 0 (Herbicidal ratio of 5% or lower (almost no effect)) | 5 (Herbicidal ratio of 90% or more (almost completely withered)) | Herbicidal effect grade, F: Digitaria ciliaris (Digitaria ciliaris): 0 (Herbicidal ratio of 5% or lower (almost no effect)); a (transplanted rice plant) effect on crop grade (transplanted rice plant): 3 (Herbicidal ratio of 40% or higher and lower than 70%); Herbicidal effect grade, K: Lolium multiflorum Lam. (Lolium multiflorum Lam.): 4 (Herbicidal ratio of 70% or higher and lower than 90%)
CC(CC1CC(O)=C(c2c(C)cc(C)cc2C)C1=O)=NOCC1CC1(F)F (stereo not drawn) [1-109] | 0 (Herbicidal ratio of 5% or lower (almost no effect)) | 5 (Herbicidal ratio of 90% or more (almost completely withered)) | 3 (Herbicidal ratio of 40% or higher and lower than 70%) | 5 (Herbicidal ratio of 90% or more (almost completely withered)) | 5 (Herbicidal ratio of 90% or more (almost completely withered)) | 0 (Herbicidal ratio of 5% or lower (almost no effect)) | 0 (Herbicidal ratio of 5% or lower (almost no effect)) | 5 (Herbicidal ratio of 90% or more (almost completely withered)) | 5 (Herbicidal ratio of 90% or more (almost completely withered)) | 5 (Herbicidal ratio of 90% or more (almost completely withered)) | 5 (Herbicidal ratio of 90% or more (almost completely withered)) | 5 (Herbicidal ratio of 90% or more (almost completely withered)) |  |  |  |  |  |  |  |  | 
CC#Cc1cc(C)c(C2=C(O)CC(CC(=NOCC(F)(F)F)C(C)C)C2=O)c(C)c1 (stereo not drawn) [9-015] |  |  |  |  |  |  |  | 5 (Herbicidal ratio of 90% or more (almost completely withered)) |  |  |  |  | 0 (Herbicidal ratio of 5% or lower (almost no effect)) | 5 (Herbicidal ratio of 90% or more (almost completely withered)) | 1 (Herbicidal ratio of 5% or higher and lower than 20%) | 5 (Herbicidal ratio of 90% or more (almost completely withered)) | 5 (Herbicidal ratio of 90% or more (almost completely withered)) | 0 (Herbicidal ratio of 5% or lower (almost no effect)) | 0 (Herbicidal ratio of 5% or lower (almost no effect)) | 5 (Herbicidal ratio of 90% or more (almost completely withered)) | Herbicidal effect grade, F: Digitaria ciliaris (Digitaria ciliaris): 5 (Herbicidal ratio of 90% or more (almost completely withered)); a (transplanted rice plant) effect on crop grade (transplanted rice plant): 5 (Herbicidal ratio of 90% or more (almost completely withered)); Herbicidal effect grade, K: Lolium multiflorum Lam. (Lolium multiflorum Lam.): 5 (Herbicidal ratio of 90% or more (almost completely withered))
